Data reported in patent US20070042014A1, “Combination of a serotonin reuptake inhibitor and loxapine” (H. Lundbeck A/S, priority 2003, published 2007).

Tested on: 5-HT levels in ventral hippocampus
Experiment: Microdialysis of brain serotonin (5-HT) levels in ventral hippocampus of rats
Type: in vivo, rat
Conditions: loxapine alone; male Wistar rats
Experimental: Male albino rats of a Wistar-derived strain (285-320 g; Harlan, Zeist, The Netherlands) were used for the experiments. Upon surgery, rats were housed individually in plastic cages (35×35×40 cm), and had free access to food and water. Animals were kept on a 12 h light schedule (light on 7:00 a.m.). The experiments are concordant with the declarations of Helsinki and were approved by the animal care committee of the faculty of mathematics and natural science of the University of Groningen.
Preceding surgery rats were anaesthetised using isoflurane (O2/N2O; 300/300 ml/min). Lidocaine-HCl, 10% (m/v) was used for local anaesthesia.
Rats were allowed to recover for at least 24 h. […]
Twenty-μl microdialysate samples were injected via an autoinjector (CMA/200 refrigerated microsampler, CMA, Sweden) onto a 100×2.0 mm C18 Hypersil 3 μm column (Bester, Amstelveen, the Netherlands) and separated with a mobile phase consisting of 5 g/L di-ammoniumsulfate, 500 mg/L EDTA, 50 mg/L heptane sulphonic acid, 4% methanol v/v, and 30 μl/L of triethylamine, pH 4.65 at a flow of 0.4 ml/min (Shimadzu LC-10 AD). 5-HT was detected amperometrically at a glassy carbon electrode at 500 mV vs Ag/AgCl (Antec Leyden, Leiden, The Netherlands). […]

For CN1CCN(C2=Nc3ccccc3Oc3ccc(Cl)cc32)CC1 [loxapine], the “effect on 5-HT levels in ventral hippocampus (microdialysis, % of control level)” value was “no significant effect”.
